US20160154928A1, “SYSTEMS, METHODS, AND ENVIRONMENT FOR AUTOMATED REVIEW OF GENOMIC DATA TO IDENTIFY DOWNREGULATED AND/OR UPREGULATED GENE EXPRESSION INDICATIVE OF A DISEASE OR CONDITION” (IMMUNEERING CORPORATION, priority 2013, published 2016)
Values joined by “and” are separate entries in the source; they are usually repeats but may differ in a detail not shown here. Identical values can stand only once.

Experiments:
[1] = test system: NEUROD6 expression; assay: CMAP (Connectivity Map) expression profiles of cultured cells treated with compounds, searched for increased NEUROD6 expression (single-sample Wilcox test); format: cell-based; details: for p.val (compounds identified to upregulate enriched NEUROD6 expression): single-sample Wilcox test on CMAP expression profiles, cultured cells after treatment
Source text: The full CMAP (builds 01 and 02) datasets were obtained from the Broad Institute. […] The output p-values were adjusted for multiple hypothesis testing (FDR p value <0.05).

[2] = test system: female mouse model of AD; details: cited from earlier work
[3] = test system: SNAP25 expression; assay: CMAP (Connectivity Map) expression profiles of cultured cells treated with compounds, searched for increased SNAP25 expression (single-sample Wilcox test); format: cell-based
Source text: The CMAP dataset is a large collection of microarray-based transcriptional signatures that includes over 7,000 expression profiles from cultured cells treated with 1,309 compounds. The full CMAP (builds 01 and 02) datasets were obtained from the Broad Institute. […] The output p-values were adjusted for multiple hypothesis testing (FDR p value <0.05).

[4] = test system: mouse models of AD; details: cited from earlier work
[5] = test system: mouse model of AD; details: cited from earlier work

For `O=c1c(-c2ccc(O)cc2)coc2cc(O)cc(O)c12` [genistein], the “effect on NEUROD6 expression” value ([1]; CMAP analysis, in words) was “significantly elevate expression of NEUROD6”.

For `C=C1C[C@@H](O)[C@H](/C=C/[C@@H](O)C(C)(C)CCCC)[C@H]1C/C=C\CCCC(=O)O` [meteneprost], the “p.val (compounds identified to upregulate enriched NEUROD6 expression)” value [1] was 2.05E−04.

In the case of `C[C@@H]1C[C@H]2O[C@@H]2/C=C\C=C\C(=O)Cc2c(Cl)c(O)cc(O)c2C(=O)O1` [monorden], the “p.val (compounds identified to upregulate enriched NEUROD6 expression)” value [1] is reported as 2.17E−04 and 2.82E−04.

In the case of `O=CC[C@@H](O)[C@H](O)[C@H](O)CO` [2-deoxy-D-glucose], the pathology [2] is given as “reduce pathology”.

For `CCCC(CCC)C(=O)O` [valproic acid], the “effect on SNAP25 expression” value ([3]; CMAP analysis, in words) is listed as “significantly elevate SNAP25 expression”, the Aβ production [4] is listed as “limit Aβ production” and the behavioral deficits [4] is listed as “limit Aβ production and behavioral deficits”. The loss of neurons [4] was “protect against loss of neurons”.

In the case of `CC(C)c1ccc2c(c1)c(SC(C)(C)C)c(CC(C)(C)C(=O)O)n2Cc1ccc(Cl)cc1` [MK-886], the “p.val (compounds identified to upregulate enriched NEUROD6 expression)” value [1] is reported as 2.46E−04.

In the case of `CCN1C[C@]2(C)CC[C@H](O)[C@]34C1[C@@H](C[C@H]23)[C@@]1(O)C[C@H](OC)[C@H]2C[C@@H]4[C@@H]1[C@H]2O` [karakoline], the cognitive function [5] is listed as “improve cognitive function”.

In the case of `CN(C(=O)C(Cl)Cl)c1ccc(O)cc1` [diloxanide], the “p.val (compounds identified to upregulate enriched SNAP25 expression)” value ([3]; single-sample Wilcox test on CMAP expression profiles, cultured cells after treatment) is reported as 1.28E−04.
